{
  "source": "paper PMC3465505",
  "about": "(Antiviral research, 2012)",
  "key": {"SV40 TAg [1]": {"biological_target": "T1, SV40 TAg (Simian virus 40, UniProt P03070)", "T1 sequence (P03070 whole entry)": "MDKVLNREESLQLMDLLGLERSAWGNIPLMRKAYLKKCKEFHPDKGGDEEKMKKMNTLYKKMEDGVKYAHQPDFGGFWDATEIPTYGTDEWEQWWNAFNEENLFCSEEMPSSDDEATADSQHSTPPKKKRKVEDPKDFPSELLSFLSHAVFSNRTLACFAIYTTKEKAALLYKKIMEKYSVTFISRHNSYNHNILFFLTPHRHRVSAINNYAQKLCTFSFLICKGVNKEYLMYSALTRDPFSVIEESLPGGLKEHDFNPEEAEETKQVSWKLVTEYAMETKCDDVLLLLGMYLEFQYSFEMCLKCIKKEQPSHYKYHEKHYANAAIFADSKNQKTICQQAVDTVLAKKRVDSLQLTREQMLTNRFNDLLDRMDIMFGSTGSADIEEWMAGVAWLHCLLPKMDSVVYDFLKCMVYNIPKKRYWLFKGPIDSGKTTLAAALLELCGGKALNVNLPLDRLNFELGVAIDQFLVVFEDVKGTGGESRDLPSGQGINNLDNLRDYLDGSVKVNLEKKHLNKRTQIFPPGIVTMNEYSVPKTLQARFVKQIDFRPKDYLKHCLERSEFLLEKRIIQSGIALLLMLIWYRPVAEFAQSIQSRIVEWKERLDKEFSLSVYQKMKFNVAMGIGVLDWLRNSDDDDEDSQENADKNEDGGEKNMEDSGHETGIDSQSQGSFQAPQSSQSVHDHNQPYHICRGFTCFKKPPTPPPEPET", "assay_type": "biochemical"}, "SV40 TAg ATPase activity": {"biological_target": "SV40 TAg ATPase activity (Simian virus 40, UniProt P03070)", "sequence (P03070 whole entry)": "as above", "test": "biochemical", "assay_type": "biochemical", "settings": "for potency of TAg ATPase inhibition compared with MAL2-11B: 100 μM compound; for inhibition at 3 µM: read-out: inhibition of TAg ATPase activity; for inhibition at 30 µM: read-out: inhibition of the ATPase activity of TAg; for inhibition of TAg ATPase activity (SAR screen): 30 μM compound"}, "CV1 cells": {"system": "CV1 cells", "test": "MTS viability assay", "assay_type": "cell-based, monkey", "settings": "CV1 cells ~90% confluency, 48 h"}, "SV40 [2]": {"system": "SV40", "test": "SV40 DNA replication by qPCR in CV1 cells", "assay_type": "cell-based, Simian Virus 40", "settings": "48 hpi; for inhibition of DNA replication: 30 μM"}, "SV40 [3]": {"system": "SV40", "test": "SV40 plaque assay in CV1 cells", "assay_type": "cell-based, Simian Virus 40", "settings": "2 days; for inhibition of viral replication relative to the DMSO control (plaque assay): 30 μM"}, "BKV": {"system": "BKV", "test": "BKV DNA replication by qPCR in Vero cells", "assay_type": "cell-based, BK virus", "settings": "10 μM, 5 d"}, "SV40 TAg [4]": {"biological_target": "T1, SV40 TAg", "test": "TAg aggregation under ATPase assay conditions", "settings": "utilized ATPase assay conditions"}, "[5]": {"settings": "TAg in the presence of 3 μM compound"}},
  "note": "Like-named read-outs stand apart in the source and are kept apart here. Marks after values point to notes of the source that are not given here.",
  "data": [
    {"smiles": "Nc1ncnc2c1ncn2[C@@H]1O[C@H](COP(=O)(O)OP(=O)(O)O)[C@@H](O)[C@H]1O", "note": "[ADP]", "values": [
      {"measurement": "Vmax", "setting": "SV40 TAg [1]; TAg in the presence of 150 μM ADP", "result": "2.9 ^‡ pmol/min"}
    ]},
    {"smiles": "Oc1c(Cl)cc(Cl)cc1Sc1cc(Cl)cc(Cl)c1O", "note": "[bithionol, Bithionol]", "values": [
      {"measurement": "Vmax", "setting": "SV40 TAg [1]; [5]", "result": "10 ^‡ pmol/min"},
      {"measurement": "potency of TAg ATPase inhibition compared with MAL2-11B", "setting": "SV40 TAg ATPase activity", "result": "significantly more potent inhibitors than MAL2-11B"},
      {"measurement": "inhibition at 3 µM", "setting": "SV40 TAg ATPase activity", "result": "~50", "unit": "%"},
      {"measurement": "inhibition at 30 µM", "setting": "SV40 TAg ATPase activity", "result": "~80", "unit": "%"},
      {"measurement": "MI50 (metabolic index-50)", "setting": "CV1 cells", "result": 68, "unit": "µM"},
      {"measurement": "inhibition of DNA replication", "setting": "SV40 [2]", "result": "~ 100 fold"},
      {"measurement": "inhibition of viral replication relative to the DMSO control (plaque assay)", "setting": "SV40 [3]", "result": "~100", "unit": "fold"},
      {"measurement": "inhibition of BKV replication", "setting": "BKV", "result": "somewhat less effective"}
    ]},
    {"smiles": "CC1=C(C(=O)OCc2ccccc2)C(c2ccc(-c3ccccc3)cc2)NC(=O)N1CCCCCC(=O)O", "note": "(stereo not drawn) [MAL2-11B]", "values": [
      {"measurement": "inhibition of DNA replication in culture", "setting": "SV40 [2]; 100 μM", "result": "~ 60%"},
      {"measurement": "reduction of the number of plaques", "setting": "SV40 [3]; 100 μM", "result": "~60", "unit": "%"}
    ]},
    {"smiles": "Oc1c(Br)cc(Cl)cc1Sc1cc(Cl)cc(Br)c1O", "note": "[6,6'-thiobis(2-bromo-4-chlorophenol)]", "values": [
      {"measurement": "inhibition of TAg ATPase activity (SAR screen)", "setting": "SV40 TAg ATPase activity", "result": "inhibited TAg ATPase activity"}
    ]},
    {"smiles": "Oc1c(Cl)cc(Cl)c(Cl)c1Cc1c(O)c(Cl)cc(Cl)c1Cl", "note": "[hexachlorophene]", "values": [
      {"measurement": "Vmax", "setting": "SV40 TAg [1]; [5]", "result": "6.6 ^‡ pmol/min"},
      {"measurement": "potency of TAg ATPase inhibition compared with MAL2-11B", "setting": "SV40 TAg ATPase activity", "result": "significantly more potent inhibitors than MAL2-11B"},
      {"measurement": "inhibition at 3 µM", "setting": "SV40 TAg ATPase activity", "result": "~50", "unit": "%"},
      {"measurement": "inhibition at 30 µM", "setting": "SV40 TAg ATPase activity", "result": "~80", "unit": "%"},
      {"measurement": "MI50 95% confidence range based on the sigmoidal fit", "setting": "CV1 cells", "result": "29 to 71", "unit": "µM"},
      {"measurement": "MI50 (metabolic index-50)", "setting": "CV1 cells", "result": 55, "unit": "µM"},
      {"measurement": "inhibition of DNA replication", "setting": "SV40 [2]", "result": "~ 100 fold"},
      {"measurement": "inhibition of viral replication relative to the DMSO control (plaque assay)", "setting": "SV40 [3]", "result": "~100", "unit": "fold"},
      {"measurement": "inhibition of BKV replication", "setting": "BKV", "result": "maintained its potent inhibition"}
    ]},
    {"smiles": "O=C1C(Cl)=C(Cl)C(=O)C(Cl)=C1Cl", "note": "[chloranil]", "values": [
      {"measurement": "potency of TAg ATPase inhibition compared with MAL2-11B", "setting": "SV40 TAg ATPase activity", "result": "significantly more potent inhibitors than MAL2-11B"},
      {"measurement": "TAg aggregation", "setting": "SV40 TAg [4]", "result": "caused TAg to aggregate"}
    ]},
    {"smiles": "Oc1c(Br)cc(Cl)cc1Cc1cc(Cl)cc(Br)c1O", "note": "[6,6'-methylenebis(2-bromo-4-chlorophenol)]", "values": [
      {"measurement": "inhibition of TAg ATPase activity (SAR screen)", "setting": "SV40 TAg ATPase activity", "result": "inhibited TAg ATPase activity"}
    ]}
  ]
}
